Measurements as given in PMC8909834, “An Orally Bioavailable and Highly Efficacious Inhibitor of CDK9/FLT3 for the Treatment of Acute Myeloid Leukemia” (Cancers, 2022).
Where two headings read alike, the source gives them in different places.

What was measured:
[1] = Drug concentration in plasma and tumor 4 h post final dose; format: in vivo, MV4-11 tumor-bearing mice; conditions: BALB/c nude (nu/nu), mouse, oral; for concentration at 4 h: 4 h post final dose
Protocol: To investigate the effect of CDDD11-8 on its targets in vivo, MV4-11 tumor-bearing mice (n = 3) were treated with the vehicle, CDDD11-8 (75 and 125 mg/kg), orally for 5 days. Four hours post final dose, tumor samples were collected and lysates prepared for western blot analysis (Figure 4C, Supplementary Figure S19). […] These were accompanied by changes in the levels of the proteins involved in cancer cell survival.
We also determined the concentration of CDDD11-8 in the plasma and tumor (Figure 4D, Supplementary Table S5). […] The tumor concentration from the 75 mg/kg dose was 2.5-times the plasma concentration. However, the plasma and tumor concentrations from 125 mg/kg were similar.

[2] = Partition coefficient by shake flask assay; format: physicochemical; conditions: octanol/aqueous phase, pH 7.4, read-out: Partition Coefficient LogD7.4 (octanol)
[3] = target: T1, ERK7/MAPK15 (Homo sapiens, UniProt Q8TD08); experiment: Kinase Hotspot radiolabel assay; format: biochemical; conditions: read-out: % Residual Activity
T1 construct: purchased Reaction Biology Corporation (Kinase HotSpot)
Protocol: (§1) Kinase assay. The ADP Glo^TM kinase assay (Promega, Madison, WI, USA) was used to assess the inhibition by CDDD11-8 of CDKs 1, 2, 4, 6, 7, and 9, as well as the mutant isoforms of FLT3. The assays were performed in accord with the manufacturer’s protocol (Promega) as described previously. Briefly, serial three-fold dilutions of CDDD11-8 were prepared in 100% DMSO from a 2 mM stock solution, followed by 1:40 dilution into Milli-Q water. Subsequently, 1 µL of each sample was incubated with 4 µL of kinase mixture containing a particular CDK enzyme and its substrate, standard kinase buffer [3 mM MgCl2, 50 mM HEPES-NaOH pH 7.5, 3 mM MnCl2, 3 µM Na-orthovanadate, 1 mM dithiothreitol (DTT)], kinase dilution buffer (containing 0.25 mg/mL PEG20,000, 50 mM HEPES-NaOH pH 7.5, 1 mM DTT), and ATP at 37 °C for 30 to 40 min. The final reaction mixture contained 0.5% DMSO in all samples, and the applied kinase concentrations were 1, 1, 10, 40, 20, and 50 nM for CDK1, 2, 4, 6, 7, and 9, respectively. The reaction was stopped by adding ADP-Glo reagent and the mixture was incubated further in the dark at room temperature for 40 min. As a final step, kinase detection reagent was added to each mixture and incubated at room temperature for 30 to 60 min. Luminescence was read using an EnVision® multilabel plate reader (PerkinElmer, Beaconsfield, UK), and half-maximum inhibitory concentrations (IC50) were calculated using a non-linear regression model with a variable slope, plotting log (inhibitor concentration) vs. response using the following formula: Ar%=Bottom+Top−Bottom/1+Inhibitor Concentration/IC50^HillSlope where the relative activity Ar (%) is the signal relative to the controls, IC50 is the half maximum concentration, Hillslope is the steepness of the dose-response curve, Top and Bottom are plateaus reflecting the maximum and minimum in responses on the Y-axis (GraphPad Prism version 7, San Diego, CA, USA). Ki values were calculated from the IC50 using the Cheng−Prusoff equation [32]. Extensive specificity assessment was carried out by Reaction Biology Corporation (Malvern, PA, USA) with 369 kinases using 1 µM CDDD11-8 concentration in a Kinase Hotspot radiolabel assay (for experimental details, please see (Reaction Biology https://www.reactionbiology.com/). Subsequently, Ki values were determined for kinases with greater than 90% inhibition.

[4] = target: T2, TEC (Homo sapiens, UniProt P42680); experiment: Kinase Hotspot radiolabel assay; format: biochemical; conditions: read-out: % Residual Activity
T2 construct: purchased Reaction Biology Corporation (Kinase HotSpot)
Protocol: as §1

[5] = target: T3, TLK1 (Homo sapiens, UniProt Q9UKI8); experiment: Kinase Hotspot radiolabel assay; format: biochemical; conditions: read-out: % Residual Activity
T3 construct: purchased Reaction Biology Corporation (Kinase HotSpot)
Protocol: as §1

[6] = target: T4, AKT1 (Homo sapiens, UniProt P31749); experiment: Kinase Hotspot radiolabel assay; format: biochemical; conditions: read-out: % Residual Activity
T4 construct: purchased Reaction Biology Corporation (Kinase HotSpot)
Protocol: as §1

[7] = target: T5, AKT3 (Homo sapiens, UniProt Q9Y243); experiment: Kinase Hotspot radiolabel assay; format: biochemical; conditions: read-out: % Residual Activity
T5 construct: purchased Reaction Biology Corporation (Kinase HotSpot)
T5 sequence (Q9Y243 whole entry): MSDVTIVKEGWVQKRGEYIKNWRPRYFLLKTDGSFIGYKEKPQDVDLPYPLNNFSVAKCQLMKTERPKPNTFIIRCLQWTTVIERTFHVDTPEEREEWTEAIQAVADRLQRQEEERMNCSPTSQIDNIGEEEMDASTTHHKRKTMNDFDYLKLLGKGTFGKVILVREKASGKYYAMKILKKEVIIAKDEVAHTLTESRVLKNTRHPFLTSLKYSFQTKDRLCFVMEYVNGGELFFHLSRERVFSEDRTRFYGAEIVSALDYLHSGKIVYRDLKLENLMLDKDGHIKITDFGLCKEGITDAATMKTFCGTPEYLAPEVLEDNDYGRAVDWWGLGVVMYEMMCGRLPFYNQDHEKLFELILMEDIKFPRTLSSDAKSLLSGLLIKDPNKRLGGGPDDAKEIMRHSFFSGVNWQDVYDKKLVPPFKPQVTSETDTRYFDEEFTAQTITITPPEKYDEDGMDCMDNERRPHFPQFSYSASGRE
Protocol: as §1

[8] = target: T6, LYN (Homo sapiens, UniProt P07948); experiment: Kinase Hotspot radiolabel assay; format: biochemical; conditions: read-out: % Residual Activity
T6 construct: purchased Reaction Biology Corporation (Kinase HotSpot)
Protocol: as §1

[9] = target: T7, FMS (Homo sapiens, UniProt P07333); experiment: Kinase Hotspot radiolabel assay; format: biochemical; conditions: read-out: % Residual Activity
T7 construct: purchased Reaction Biology Corporation (Kinase HotSpot)
T7 sequence (P07333 20-972): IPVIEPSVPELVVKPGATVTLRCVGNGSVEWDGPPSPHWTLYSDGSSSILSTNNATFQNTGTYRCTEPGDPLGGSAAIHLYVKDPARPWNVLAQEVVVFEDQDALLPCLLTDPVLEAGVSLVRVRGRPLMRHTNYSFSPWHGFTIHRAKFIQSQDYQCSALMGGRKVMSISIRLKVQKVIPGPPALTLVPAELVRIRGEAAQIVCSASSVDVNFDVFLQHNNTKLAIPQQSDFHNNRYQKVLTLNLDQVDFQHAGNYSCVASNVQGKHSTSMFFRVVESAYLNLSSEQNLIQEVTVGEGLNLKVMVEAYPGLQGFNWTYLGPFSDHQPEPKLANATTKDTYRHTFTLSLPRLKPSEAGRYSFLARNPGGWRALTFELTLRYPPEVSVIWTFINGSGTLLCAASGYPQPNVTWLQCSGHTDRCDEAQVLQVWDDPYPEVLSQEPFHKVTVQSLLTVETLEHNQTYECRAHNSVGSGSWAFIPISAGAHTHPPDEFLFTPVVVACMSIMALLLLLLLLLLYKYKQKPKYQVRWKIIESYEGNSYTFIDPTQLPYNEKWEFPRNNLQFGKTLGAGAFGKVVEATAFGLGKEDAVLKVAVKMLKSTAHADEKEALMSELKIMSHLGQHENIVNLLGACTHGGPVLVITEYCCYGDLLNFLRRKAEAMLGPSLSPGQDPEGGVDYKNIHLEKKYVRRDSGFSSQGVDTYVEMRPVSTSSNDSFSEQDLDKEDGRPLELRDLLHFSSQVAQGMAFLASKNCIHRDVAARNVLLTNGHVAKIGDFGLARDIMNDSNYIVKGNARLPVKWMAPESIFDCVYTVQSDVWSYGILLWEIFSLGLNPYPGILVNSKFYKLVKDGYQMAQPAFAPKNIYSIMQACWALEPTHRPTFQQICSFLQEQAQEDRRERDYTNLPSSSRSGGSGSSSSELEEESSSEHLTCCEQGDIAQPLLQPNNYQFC
Protocol: as §1

[10] = target: T8, WEE1 (Homo sapiens, UniProt P30291); experiment: Kinase Hotspot radiolabel assay; format: biochemical; conditions: read-out: % Residual Activity
T8 construct: purchased Reaction Biology Corporation (Kinase HotSpot)
Protocol: as §1

[11] = target: T9, LIMK1 (Homo sapiens, UniProt P53667); experiment: Kinase Hotspot radiolabel assay; format: biochemical; conditions: read-out: % Residual Activity
T9 construct: purchased Reaction Biology Corporation (Kinase HotSpot)
T9 sequence (P53667 whole entry): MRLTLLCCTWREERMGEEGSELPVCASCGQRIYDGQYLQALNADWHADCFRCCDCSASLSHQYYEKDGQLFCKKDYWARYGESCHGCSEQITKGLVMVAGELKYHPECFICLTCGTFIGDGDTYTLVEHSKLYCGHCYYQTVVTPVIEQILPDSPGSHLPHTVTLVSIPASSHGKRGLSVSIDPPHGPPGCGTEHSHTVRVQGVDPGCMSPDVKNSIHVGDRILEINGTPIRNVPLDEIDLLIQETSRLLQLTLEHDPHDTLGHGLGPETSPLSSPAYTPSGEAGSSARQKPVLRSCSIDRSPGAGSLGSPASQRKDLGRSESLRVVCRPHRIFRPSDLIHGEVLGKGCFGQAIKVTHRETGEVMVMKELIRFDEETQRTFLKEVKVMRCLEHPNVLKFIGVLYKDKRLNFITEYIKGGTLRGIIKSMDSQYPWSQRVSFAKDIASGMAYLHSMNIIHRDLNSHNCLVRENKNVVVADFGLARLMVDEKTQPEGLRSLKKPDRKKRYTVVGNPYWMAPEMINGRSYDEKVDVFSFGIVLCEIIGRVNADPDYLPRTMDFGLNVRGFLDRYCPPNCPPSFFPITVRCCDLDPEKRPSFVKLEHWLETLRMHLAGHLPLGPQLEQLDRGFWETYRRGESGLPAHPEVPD
Protocol: as §1

[12] = target: T10, MKK7 (Homo sapiens, UniProt O14733); experiment: Kinase Hotspot radiolabel assay; format: biochemical; conditions: read-out: % Residual Activity
T10 construct: purchased Reaction Biology Corporation (Kinase HotSpot)
Protocol: as §1

[13] = target: T11, MYO3A (Homo sapiens, UniProt Q8NEV4); experiment: Kinase Hotspot radiolabel assay; format: biochemical; conditions: read-out: % Residual Activity
T11 construct: purchased Reaction Biology Corporation (Kinase HotSpot)
T11 sequence (Q8NEV4 whole entry): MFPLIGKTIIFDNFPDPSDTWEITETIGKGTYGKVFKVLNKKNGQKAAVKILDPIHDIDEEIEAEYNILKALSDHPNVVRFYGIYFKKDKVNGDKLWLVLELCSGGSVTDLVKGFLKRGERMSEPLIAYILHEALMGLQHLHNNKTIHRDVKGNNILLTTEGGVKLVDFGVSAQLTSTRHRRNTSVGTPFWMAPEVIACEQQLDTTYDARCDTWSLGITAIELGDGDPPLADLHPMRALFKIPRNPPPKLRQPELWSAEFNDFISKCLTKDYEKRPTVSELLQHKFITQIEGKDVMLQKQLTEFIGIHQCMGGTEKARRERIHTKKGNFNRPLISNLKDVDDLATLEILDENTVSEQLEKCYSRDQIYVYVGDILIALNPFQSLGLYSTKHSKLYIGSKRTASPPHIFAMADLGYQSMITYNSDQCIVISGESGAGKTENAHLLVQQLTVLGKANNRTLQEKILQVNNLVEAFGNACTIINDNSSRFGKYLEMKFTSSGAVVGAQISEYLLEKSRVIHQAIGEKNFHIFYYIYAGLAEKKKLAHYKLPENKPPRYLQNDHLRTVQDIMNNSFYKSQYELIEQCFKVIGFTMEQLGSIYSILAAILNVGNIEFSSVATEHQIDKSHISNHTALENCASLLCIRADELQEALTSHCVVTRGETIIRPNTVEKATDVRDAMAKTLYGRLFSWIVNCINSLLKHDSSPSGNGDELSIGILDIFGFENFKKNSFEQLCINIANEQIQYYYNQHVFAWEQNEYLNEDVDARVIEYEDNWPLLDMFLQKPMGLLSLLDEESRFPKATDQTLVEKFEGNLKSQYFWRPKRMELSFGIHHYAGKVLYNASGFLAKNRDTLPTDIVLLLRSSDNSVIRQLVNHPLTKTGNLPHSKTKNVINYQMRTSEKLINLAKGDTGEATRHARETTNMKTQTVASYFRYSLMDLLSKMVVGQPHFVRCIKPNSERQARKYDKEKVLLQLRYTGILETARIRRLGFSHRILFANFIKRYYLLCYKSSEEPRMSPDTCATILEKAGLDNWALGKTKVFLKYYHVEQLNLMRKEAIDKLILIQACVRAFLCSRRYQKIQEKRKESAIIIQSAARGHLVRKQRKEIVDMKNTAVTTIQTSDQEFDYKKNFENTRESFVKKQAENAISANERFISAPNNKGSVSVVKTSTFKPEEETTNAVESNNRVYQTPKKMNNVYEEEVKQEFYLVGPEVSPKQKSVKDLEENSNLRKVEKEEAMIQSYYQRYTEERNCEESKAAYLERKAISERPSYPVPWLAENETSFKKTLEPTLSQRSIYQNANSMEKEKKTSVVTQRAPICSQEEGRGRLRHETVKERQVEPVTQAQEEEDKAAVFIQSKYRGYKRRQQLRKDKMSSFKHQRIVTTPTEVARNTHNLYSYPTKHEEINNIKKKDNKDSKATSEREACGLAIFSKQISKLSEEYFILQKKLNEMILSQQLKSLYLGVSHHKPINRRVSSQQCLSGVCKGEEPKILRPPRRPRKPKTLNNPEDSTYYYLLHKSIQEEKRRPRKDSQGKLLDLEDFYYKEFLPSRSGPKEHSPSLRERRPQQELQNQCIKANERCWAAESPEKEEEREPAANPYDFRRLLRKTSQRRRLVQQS
Protocol: as §1

[14] = target: T12, PEAK1 (Homo sapiens, UniProt Q9H792); experiment: Kinase Hotspot radiolabel assay; format: biochemical; conditions: read-out: % Residual Activity
T12 construct: purchased Reaction Biology Corporation (Kinase HotSpot)
Protocol: as §1

[15] = target: T13, MKK6 (Homo sapiens, UniProt P52564); experiment: Kinase Hotspot radiolabel assay; format: biochemical; conditions: read-out: % Residual Activity
T13 construct: purchased Reaction Biology Corporation (Kinase HotSpot)
Protocol: as §1

[16] = target: T14, DAPK2 (Homo sapiens, UniProt Q9UIK4); experiment: Kinase Hotspot radiolabel assay; format: biochemical; conditions: read-out: % Residual Activity
T14 construct: purchased Reaction Biology Corporation (Kinase HotSpot)
T14 sequence (Q9UIK4 whole entry): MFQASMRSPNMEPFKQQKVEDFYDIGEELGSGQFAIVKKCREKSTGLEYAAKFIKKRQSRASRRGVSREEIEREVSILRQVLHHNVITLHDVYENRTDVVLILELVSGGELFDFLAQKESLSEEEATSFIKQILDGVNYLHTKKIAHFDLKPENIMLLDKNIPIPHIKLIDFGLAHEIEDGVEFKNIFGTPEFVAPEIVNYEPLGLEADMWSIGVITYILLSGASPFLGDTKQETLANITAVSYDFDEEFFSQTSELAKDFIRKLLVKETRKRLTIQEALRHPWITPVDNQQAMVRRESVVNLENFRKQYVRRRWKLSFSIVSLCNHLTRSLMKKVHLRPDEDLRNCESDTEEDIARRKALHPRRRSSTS
Protocol: as §1

[17] = target: T15, GRK2 (Homo sapiens, UniProt P25098); experiment: Kinase Hotspot radiolabel assay; format: biochemical; conditions: read-out: % Residual Activity
T15 construct: purchased Reaction Biology Corporation (Kinase HotSpot)
Protocol: as §1

[18] = target: T16, c-Kit (Homo sapiens, UniProt P10721); experiment: Kinase Hotspot radiolabel assay; format: biochemical; conditions: read-out: % Residual Activity
T16 construct: purchased Reaction Biology Corporation (Kinase HotSpot)
Protocol: as §1

[19] = target: T17, ULK2 (Homo sapiens, UniProt Q8IYT8); experiment: Kinase Hotspot radiolabel assay; format: biochemical; conditions: read-out: % Residual Activity
T17 construct: purchased Reaction Biology Corporation (Kinase HotSpot)
T17 sequence (Q8IYT8 whole entry): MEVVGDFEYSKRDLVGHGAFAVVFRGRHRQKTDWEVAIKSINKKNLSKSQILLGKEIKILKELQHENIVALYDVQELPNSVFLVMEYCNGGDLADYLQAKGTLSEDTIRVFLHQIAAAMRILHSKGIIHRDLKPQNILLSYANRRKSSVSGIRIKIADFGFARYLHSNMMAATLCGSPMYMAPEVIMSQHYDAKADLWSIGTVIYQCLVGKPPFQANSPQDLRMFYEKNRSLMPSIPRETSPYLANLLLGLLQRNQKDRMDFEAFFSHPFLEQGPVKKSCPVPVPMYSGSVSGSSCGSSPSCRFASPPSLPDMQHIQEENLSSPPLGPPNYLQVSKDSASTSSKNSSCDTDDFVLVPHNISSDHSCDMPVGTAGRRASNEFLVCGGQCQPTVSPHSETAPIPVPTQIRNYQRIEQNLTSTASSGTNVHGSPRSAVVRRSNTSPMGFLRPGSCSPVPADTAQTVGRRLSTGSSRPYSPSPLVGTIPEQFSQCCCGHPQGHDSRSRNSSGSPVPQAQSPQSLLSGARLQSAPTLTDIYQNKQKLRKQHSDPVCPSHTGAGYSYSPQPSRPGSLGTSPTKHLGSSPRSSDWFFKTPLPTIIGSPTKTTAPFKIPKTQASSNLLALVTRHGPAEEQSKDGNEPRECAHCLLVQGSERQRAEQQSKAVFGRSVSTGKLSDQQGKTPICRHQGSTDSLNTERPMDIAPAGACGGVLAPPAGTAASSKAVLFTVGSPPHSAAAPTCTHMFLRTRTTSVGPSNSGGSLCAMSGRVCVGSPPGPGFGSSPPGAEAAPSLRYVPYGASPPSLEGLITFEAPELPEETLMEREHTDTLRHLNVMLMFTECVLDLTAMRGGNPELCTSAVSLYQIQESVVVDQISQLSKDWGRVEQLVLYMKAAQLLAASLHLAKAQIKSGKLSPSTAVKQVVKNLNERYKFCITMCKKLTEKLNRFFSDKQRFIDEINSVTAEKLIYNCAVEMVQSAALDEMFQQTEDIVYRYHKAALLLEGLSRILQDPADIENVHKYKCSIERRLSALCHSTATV
Protocol: as §1

[20] = target: T18, ZAP70 (Homo sapiens, UniProt P43403); experiment: Kinase Hotspot radiolabel assay; format: biochemical; conditions: read-out: % Residual Activity
T18 construct: purchased Reaction Biology Corporation (Kinase HotSpot)
Protocol: as §1

[21] = target: T19, MUSK (Homo sapiens, UniProt O15146); experiment: Kinase Hotspot radiolabel assay; format: biochemical; conditions: read-out: % Residual Activity
T19 construct: purchased Reaction Biology Corporation (Kinase HotSpot)
Protocol: as §1

[22] = target: T20, CLK1 (Homo sapiens, UniProt P49759); experiment: Kinase Hotspot radiolabel assay; format: biochemical; conditions: read-out: % Residual Activity
T20 construct: purchased Reaction Biology Corporation (Kinase HotSpot)
Protocol: as §1

## Cc1cnc(N[C@H]2CC[C@H](N)CC2)nc1-c1cnc2ccc(-c3ccccc3)cn12 [CDDD11-8]
[1]; plasma, 75 mg/kg, 75 mg/kg orally 5 days, mouse 1, read-out: Plasma concentration
  concentration at 4 h: 490 ng/mL
[1]; plasma, 75 mg/kg, 75 mg/kg orally 5 days, mouse 2, read-out: Plasma concentration
  concentration at 4 h: 441 ng/mL
[1]; plasma, 75 mg/kg, 75 mg/kg orally 5 days, mouse 3, read-out: Plasma concentration
  concentration at 4 h: 1090 ng/mL
[1]; plasma, 125 mg/kg, 125 mg/kg orally 5 days, mouse 1, read-out: Plasma concentration
  concentration at 4 h: 1440 ng/mL
[1]; plasma, 125 mg/kg, 125 mg/kg orally 5 days, mouse 2, read-out: Plasma concentration
  concentration at 4 h: 2850 ng/mL
[1]; plasma, 125 mg/kg, 125 mg/kg orally 5 days, mouse 3, read-out: Plasma concentration
  concentration at 4 h: 1800 ng/mL
[1]; tumor, 75 mg/kg, 75 mg/kg orally 5 days, mouse 1, read-out: Tumor concentration
  concentration at 4 h: 2140 ng/g
[1]; tumor, 75 mg/kg, 75 mg/kg orally 5 days, mouse 2, read-out: Tumor concentration
  concentration at 4 h: 1780 ng/g
[1]; tumor, 75 mg/kg, 75 mg/kg orally 5 days, mouse 3, read-out: Tumor concentration
  concentration at 4 h: 1480 ng/g
[1]; tumor, 75 mg/kg, read-out: tumor concentration relative to plasma concentration
  Kp at 4 h: 2.5
[1]; tumor, 125 mg/kg, 125 mg/kg orally 5 days, mouse 1, read-out: Tumor concentration
  concentration at 4 h: 1680 ng/g
[1]; tumor, 125 mg/kg, 125 mg/kg orally 5 days, mouse 2, read-out: Tumor concentration
  concentration at 4 h: 2310 ng/g
[1]; tumor, 125 mg/kg, 125 mg/kg orally 5 days, mouse 3, read-out: Tumor concentration
  concentration at 4 h: 1850 ng/g
[2]
  logD: 1.87
[3]
  remaining activity at 1 µM: 66.4%
[4]
  remaining activity at 1 µM: 101%
[5]
  remaining activity at 1 µM: 110%
[6]
  remaining activity at 1 µM: 95%
[7]
  remaining activity at 1 µM: 77.2%
[8]
  remaining activity at 1 µM: 65.5%
[9]
  remaining activity at 1 µM: 73%
[10]
  remaining activity at 1 µM: 94.3%
[11]
  remaining activity at 1 µM: 12.9%
[12]
  remaining activity at 1 µM: 95.4%
[13]
  remaining activity at 1 µM: 87.3%
[14]
  remaining activity at 1 µM: 57.3%
[15]
  remaining activity at 1 µM: 95.7%
[16]
  remaining activity at 1 µM: 81.2%
[17]
  remaining activity at 1 µM: 95.9%
[18]
  remaining activity at 1 µM: 97.5%
[19]
  remaining activity at 1 µM: 113%
[20]
  remaining activity at 1 µM: 101%
[21]
  remaining activity at 1 µM: 72.7%
[22]
  remaining activity at 1 µM: 28.9%
